Reference: patent US11723907B2, “Anti-aging compounds” (THE CLEVELAND CLINIC FOUNDATION, priority 2017, dated 2023)

Legend:
[1] = cited from earlier work
cytochrome c = experiment: Enzymatic NAD(P)H oxidation / cytochrome c reduction catalyzed by N2N1; assay type: biochemical; settings: inhibitor 2 μM
Protocol: FIGS. 5A-5C provide graphs and schemes relating to the N2N1 mechanism of action. […] No specific substrate was added into reaction mix, therefore, it was concluded that reaction was driven by slow reduction of molecular oxygen dissolved into reaction buffer. The hypothetical reaction equation is shown below reaction plots. (B) The proposed molecular mechanism of possible substrate reduction catalyzed by N2N1. (C) Addition of peroxide or cytochrome c into reaction allowed us to identify cytochrome c as the most preferable substrate for the N2N1 driven enzymatic reaction. […] It was interesting to notice that addition of cytochrome c to non-enzymatic reaction reduced the reaction rate. […] The hypothetical reaction equation is show below the reaction plots.
FIGS. 6A-6B provide graphs showing the enzymatic reduction of cytochrome C catalyzed by N2N1 can utilize both NADH and NADPH. (A) The enzymatic electrons transfer from NADH to cytochrome c driven by N2N1 was monitored by decrease in absorption at 340 nm (NADH) and increase in absorption at 550 nm (cytochrome c). The absorbance spectrum was screened at the end of the reaction (˜1 hour). The hypothetical reaction equation is shown below the reaction plots. (B) The enzymatic electrons transfer from NADPH to cytochrome c driven by N2N1 was monitored by decrease in absorption at 340 nm (NADPH) and increase in absorption at 550 nm (cytochrome c). The hypothetical reaction equation is shown below the reaction plots.
To evaluate possible participation of mitochondrial NADH oxidoreductases, in particular Complex I and III, the […] was run in the presence of rotenone or antimycin A (2 μM). The acquired data allowed us to specify the most probable candidate that carry out the transfer electrons from NAD(P)H to cytochrome C driven by N2N1. The NQO1 protein would be the most likely candidate, while proteins from CYB5 family still cannot be ruled out.
Bonkowski et al., Nature reviews. Molecular cell biology 17, 679-690 (2016); Orr et al., Antioxidants & redox signaling 19, 788-803 (2013). It quite possible, that NAD(P)H oxidation catalyzed by N2N1 is performed by NADH:cytochrome b5 reductases (CYB5 . . . ) or NAD(P)H:quinone oxidoreductase (NQO1) reductase (FIG. 3C). The inventors found by RNA-seq analysis that fourteen genes from CYB5 family were expressed in normal fibroblast. NQO1 was also detected at the high level of expression. These reductases connect aerobic metabolism with aging by directed electron flow from NAD(P)H to oxygen, cytochrome C, and peroxide. Jimenez-Hidalgo et al., Aging cell 8, 140-151 (2009). […]

Molecule: CO[C@H]1C[C@@H]2CC[C@@H](C)[C@@](O)(O2)C(=O)C(=O)N2CCCC[C@H]2C(=O)O[C@H]([C@H](C)C[C@@H]2CC[C@@H](O)[C@H](OC)C2)CC(=O)[C@H](C)/C=C(\C)[C@@H](O)[C@@H](OC)C(=O)[C@H](C)C[C@H](C)/C=C/C=C/C=C/1C [Rapamycin]
- water solubility [1]: poor

Molecule: C=C(C)[C@H]1Cc2c(ccc3c2O[C@@H]2COc4cc(OC)c(OC)cc4[C@@H]2C3=O)O1 [rotenone, reference compound]
- suppression of enzymatic reduction of cytochrome c catalyzed by N2N1 (cytochrome c): did not suppress

Molecule: antimycin A [reference compound]
- suppression of enzymatic reduction of cytochrome c catalyzed by N2N1 (cytochrome c): did not suppress
